Laboratory results published in PMC10620772, “Design, synthesis, and biological evaluation of new pyrimidine-5-carbonitrile derivatives as novel anti-cancer, dual EGFR^WT/COX-2 inhibitors with docking studies” (RSC Advances, 2023).

Experiments:
[1] = tested on: TK-10; assay: NCI60 antitumor screening; type: cell-based, human; conditions: Homo sapiens; 10 μM single dose; TK-10 (renal cancer); read-out: growth inhibition percent (GI%)
[2] = tested on: COLO 205; assay: NCI60 antitumor screening; type: cell-based, human; conditions: Homo sapiens; 10 μM single dose; COLO 205 (colon cancer); read-out: growth inhibition percent (GI%)
[3] = tested on: SK-MEL-28; assay: NCI60 antitumor screening; type: cell-based, human; conditions: Homo sapiens; 10 μM single dose; SK-MEL-28 (melanoma); read-out: growth inhibition percent (GI%)
[4] = tested on: SNB-19; assay: NCI60 antitumor screening; type: cell-based, human; conditions: Homo sapiens; 10 μM single dose; SNB-19 (CNS cancer); read-out: growth inhibition percent (GI%)
[5] = tested on: SK-OV-3; assay: NCI60 antitumor screening; type: cell-based, human; conditions: Homo sapiens; 10 μM single dose; SK-OV-3 (ovarian cancer); read-out: growth inhibition percent (GI%)
[6] = tested on: RXF 393; assay: NCI60 antitumor screening; type: cell-based, human; conditions: Homo sapiens; 10 μM single dose; RXF 393 (renal cancer); read-out: growth inhibition percent (GI%)
[7] = tested on: LOX IMVI; assay: NCI60 antitumor screening; type: cell-based, human; conditions: Homo sapiens; 10 μM single dose; LOX IMVI (melanoma); read-out: growth inhibition percent (GI%)
[8] = tested on: CAKI-1; assay: NCI60 antitumor screening; type: cell-based, human; conditions: Homo sapiens; 10 μM single dose; CAKI-1 (renal cancer); read-out: growth inhibition percent (GI%)
[9] = tested on: SF-539; assay: NCI60 antitumor screening; type: cell-based, human; conditions: Homo sapiens; 10 μM single dose; SF-539 (CNS cancer); read-out: growth inhibition percent (GI%)
[10] = tested on: NCI/ADR-RES; assay: NCI60 antitumor screening; type: cell-based, human; conditions: Homo sapiens; 10 μM single dose; NCI/ADR-RES (ovarian cancer); read-out: growth inhibition percent (GI%)
[11] = tested on: UACC-257; assay: NCI60 antitumor screening; type: cell-based, human; conditions: Homo sapiens; 10 μM single dose; UACC-257 (melanoma); read-out: growth inhibition percent (GI%)
[12] = tested on: ACHN; assay: NCI60 antitumor screening; type: cell-based, human; conditions: Homo sapiens; 10 μM single dose; ACHN (renal cancer); read-out: growth inhibition percent (GI%)
[13] = tested on: MCF7; assay: NCI60 antitumor screening; type: cell-based, human; conditions: Homo sapiens; 10 μM single dose; MCF7 (breast cancer); read-out: growth inhibition percent (GI%)
[14] = tested on: A498; assay: NCI60 antitumor screening; type: cell-based, human; conditions: Homo sapiens; 10 μM single dose; A498 (renal cancer); read-out: growth inhibition percent (GI%)
[15] = tested on: SF-268; assay: NCI60 antitumor screening; type: cell-based, human; conditions: Homo sapiens; 10 μM single dose; SF-268 (CNS cancer); read-out: growth inhibition percent (GI%)
[16] = tested on: NCI-H322M; assay: NCI60 antitumor screening; type: cell-based, human; conditions: Homo sapiens; 10 μM single dose; NCI-H322M (non-small cell lung cancer); read-out: growth inhibition percent (GI%)
[17] = tested on: NCI60 cell lines panel; assay: NCI60 antitumor screening, full panel; type: cell-based, human; conditions: Homo sapiens; 10 μM single dose; mean over NCI60 cell lines; read-out: Mean growth inhibition percent (GI%)
In short: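 Percent growth inhibition (GI%) was recorded for each of the NCI60 lines, spanning leukaemia, lung, colon, CNS, melanoma, ovarian, renal, prostate and breast cancers, after exposure to compounds at one concentration, 10 μM.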

[18] = tested on: SK-MEL-5; assay: NCI60 antitumor screening; type: cell-based, human; conditions: Homo sapiens; 10 μM single dose; SK-MEL-5 (melanoma); read-out: growth inhibition percent (GI%)
[19] = tested on: HL-60(TB); assay: NCI60 antitumor screening; type: cell-based, human; conditions: Homo sapiens; 10 μM single dose; HL-60(TB) (leukaemia); read-out: growth inhibition percent (GI%)
[20] = tested on: OVCAR-8; assay: NCI60 antitumor screening; type: cell-based, human; conditions: Homo sapiens; 10 μM single dose; OVCAR-8 (ovarian cancer); read-out: growth inhibition percent (GI%)

N#Cc1c(-c2ccc(F)cc2)nc(SCc2ccc([N+](=O)[O-])cc2)nc1N1CCN(c2ccccc2)CC1 [4o, 4-(4-Fluorophenyl)-2-((4-nitrobenzyl)thio)-6-(4-phenylpiperazin-1-yl)pyrimidine-5-carbonitrile]
inhibition at 10 µM [1]: < 10%
inhibition at 10 µM [2]: < 10%
inhibition at 10 µM [3]: < 10%
inhibition at 10 µM [4]: < 10%
inhibition at 10 µM [5]: < 10%
inhibition at 10 µM [6]: < 10%
inhibition at 10 µM [7]: < 10%
inhibition at 10 µM [8]: 13.7%
inhibition at 10 µM [9]: < 10%
inhibition at 10 µM [10]: < 10%
inhibition at 10 µM [11]: < 10%
inhibition at 10 µM [12]: < 10%
inhibition at 10 µM [13]: 14.8%
inhibition at 10 µM [14]: < 10%
inhibition at 10 µM [15]: < 10%
melting point: 165 to 167 °C
inhibition at 10 µM [16]: < 10%
inhibition at 10 µM [17]: < 10%
inhibition at 10 µM [18]: < 10%
inhibition at 10 µM [19]: < 10%
inhibition at 10 µM [20]: < 10%
